The test system of one test is rat fat cells. Description: Inhibition of free fatty acid release from epinephrine-stimulated rat fat cells. It is filed as cell-based. The conditions noted are these: 10^-5 M epinephrine, 3 hours at 37° C., VOSO4 is 1.00 mM, other values are relative to it, read-out: IC50 (mM), concentration that inhibits 50% fatty acid release. The procedure: According to the method described in Biol. Pharm.
In silicon-processed vials, the fat cells isolated in the above (2.5×10^6 cells/ml) were pre-incubated in 1 ml of KRB buffer that contains a varying concentration (10^−4, 5×10^−4, 10^−3 M) of VOSO4 different Zn(II) complexes of the invention and 20 mg/ml of BSA, at 37° C. for 0.5 hours. Next, 10^−5 M of epinephrine was added to the reaction mixture, and the resulting solution was incubated at 37° C. for 3 hours. The reaction was stopped by cooling the mixture with ice, and the mixture was centrifuged at 3000 rpm for 10 minutes. The free fatty acid (FFA) level in the extracellular solution was measured with an NEFA kit, and IC50 of the test compound was calculated.

A further test concerns KK-A^y mice. Kind of test: Glucose tolerance (glucose load) test in KK-A^y mice after 14-day administration. In kind it is in vivo. The conditions noted are these: for effect in glucose load test compared with Zn(2-AM-py)2Cl2 or Zn(Car)2Cl2 / diabetic condition in glucose load test: FIG. 21 and FIG. 22, 14-day intraperitoneal administration; for diabetic condition in glucose load test: vs diabetic control mice. An excerpt: This is a glucose load test effected according to the method described in Biochem. Biophys. Res. Comm., 281, 1190-1193 (2001), in which the zinc(II) complex of the invention was intraperitoneally administered to KK-A^y mice for 14 days or was not thereto. […]

Ten compounds from patent publication US7226935B2, “Hypoglycemic agent” (Japan Science and Technology Corporation, priority 2001, dated 2007) can be followed below.

On to “bis-(R)-2-(1-aminoethyl)pyridine (=α-pyridylethylamine)/zinc(II) complex [Zn((R)-2-AM-py)2Cl2]”, for which the IC50 in the test with rat fat cells is 0.4 mM. On the same count and under the same terms, the same measure for “bis(glycyl-N,N′-ethylene-L-alanyl-L-alanine ethyl ester)/zinc(II) complex [Zn(Gly-eAA-OEt)2Cl2]”: 0.85 mM. As to “bis(vitamin U)/zinc(II) complex [Zn(Vit-U)Cl2]”, in the test on rat fat cells, the IC50 was 0.84 mM. Besides, in the test on KK-A^y mice, the “effect in glucose load test compared with Zn(2-AM-py)2Cl2 or Zn(Car)2Cl2” value was “somewhat lower” and the “diabetic condition in glucose load test” value is recorded as “significantly ameliorated”. For “bis(2-aminomethylpyridine)/zinc(II) complex [Zn(2-AM-py)2Cl2]”, in the test on rat fat cells, the IC50 is 0.85 mM. For the same compound, the “blood glucose level after 120 minutes” value is listed as “almost the normal level” in the test on KK-A^y mice (FIG. 19, 13-hour fasting after 14-day intraperitoneal administration, 1 g/kg glucose orally) and “almost the normal level” in the test on KK-A^y mice (FIG. 20, 13-hour fasting after 14-day administration, 1 g/kg glucose orally). The “peak top of blood glucose level after glucose administration” value in the test with KK-A^y mice (FIG. 19, 13-hour fasting after 14-day intraperitoneal administration, 1 g/kg glucose orally, vs no complex administration) was “low peak top”; in the test with KK-A^y mice (FIG. 20, 13-hour fasting after 14-day administration, vs oral L-carnitine and acacia solution alone), “low peak top”. Consider “bis(quinic acid)/zinc(II) complex [Zn(Qui)2]”, for which the IC50 with rat fat cells turned out to be 0.98 mM. Moreover, in the test with KK-A^y mice, the “effect in glucose load test compared with Zn(2-AM-py)2Cl2 or Zn(Car)2Cl2” value is “somewhat lower” and the “diabetic condition in glucose load test” value is “significantly ameliorated”.

For the compound `C[C@H](O)C(=O)O.C[C@H](O)C(=O)O.[Zn]` [Zn(Lac)2, L-lactic Acid (Lac)/zinc(II) complex], in the test with rat fat cells, the IC50 amounted to 0.81 mM.

Regarding `O=S(=O)([O-])[O-].[O]=[V+2]` [VOSO4, oxovanadium sulfate, reference compound], in the test with rat fat cells, the IC50 stood at 1 mM. Still for that read-out and setting: for “bis-(S)-2-(1-aminoethyl)pyridine/zinc(II) complex [Zn((S)-2-AM-py)2Cl2]” the value was 0.39 mM. Still for that read-out and setting: for “L-carnitine (γ-trimethyl-β-hydroxybutyrobetaine=Car)/zinc(II) complex [Zn(Car)2Cl2]” the value was 0.8 mM; for `O=C1O[C@H]([C@@H](O)CO)C(O)=C1[O-].O=C1O[C@H]([C@@H](O)CO)C(O)=C1[O-].[Zn+2]` [Zn(Vit-C)2, bis(L-ascorbic acid)/zinc(II) complex], 0.8 mM.
